Measured values as given in patent US11839698B2, “Drug composition and coating” (priority 2014, dated 2023).
Counter-ions that a name gives are not always drawn.

Assays:
[1] = Test Method D: stability to ethylene oxide sterilization (paclitaxel recovery by UPLC); format: physicochemical; conditions: additive formulated with paclitaxel as solid coating
Procedure: A sample of a composition of the invention or a coated device of the invention was placed in a breathable polyethylene pouch (e.g. a Tyvek pouch) and subjected to at least 12 hours preconditioning at 43° C. and 65% relative humidity followed by 12 hours exposure to 600 mg/L ethylene oxide at 52° F. and 25% relative humidity. The chamber was then aerated at 32° F. for at least 12 hours until ethylene oxide concentration was less than 0.25 ppm.
After sterilization, the paclitaxel content on the device or the paclitaxel content of the composition was assessed (through device extraction for coated medical devices i.e. immersion of the whole device in an extraction solvent) using UPLC quantification as described in the evaluation methods section. For each device or composition, the percentage drug recovery after sterilization was calculated by normalizing the extracted paclitaxel amount by the theoretical paclitaxel amount loaded on the device, or present in the composition pre-sterilization.
Approximately 30 mg of excipient was weighed into a 7 mL glass vial and 6 mL of 75/25 v/v acetone/water was added. A small stirrer bar was added to each vial and all samples were stirred overnight at room temperature to ensure full dissolution. […] Percent paclitaxel recovery was calculated by normalizing to either theoretical initial loading or pre-sterilized samples.

[2] = in acetone, ethanol and aqueous mixtures thereof
From the text: As discussed in further detail below, coatings of the invention can be prepared by pipetting a solution containing therapeutic agent and excipient onto the device to be coated. […] Thus, in one embodiment the organic additive is not thiamine-HCl.

[3] = Early experiments on stability of organic additive in solution; format: physicochemical
From the text: Thus, vanillin is not suitable as an organic additive for the present invention.

SMILES | effect of additive on paclitaxel under ethylene oxide sterilization [1] | also measured
O=C([O-])c1ccccc1O.[Na+] [sodium salicylate] | cause degradation of the paclitaxel | 
Cc1ncc(C[n+]2csc(CCO)c2C)c(N)n1 [thiamine-HCl] |  | solubility of additive [2]: poor solubility
COc1cc(C=O)ccc1O [vanillin] |  | stability of additive in solution [3]: easily degraded in solution
NC(=O)c1cccnc1 [niacinamide] | nearly complete paclitaxel degradation | 
